Laboratory results as given in BindingDB's records for doi:10.7270/Q2222S6W (University of Pittsburgh, 2007).
Structures can show the parent of a compound that is named as a salt.

Target: Genome polyprotein (West Nile virus, UniProt P06935)
Assay: West Nile NS2B-NS3 proteinase blockers – biochemical, confirmation, dose response (AID 653)

Chain of Genome polyprotein (P06935 1371-1501 limits assumed): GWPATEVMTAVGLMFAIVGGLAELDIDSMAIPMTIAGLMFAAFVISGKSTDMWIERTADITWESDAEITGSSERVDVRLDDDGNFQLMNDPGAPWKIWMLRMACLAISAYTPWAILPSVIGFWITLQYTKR
Chain of Genome polyprotein (P06935 1502-2120 limits assumed): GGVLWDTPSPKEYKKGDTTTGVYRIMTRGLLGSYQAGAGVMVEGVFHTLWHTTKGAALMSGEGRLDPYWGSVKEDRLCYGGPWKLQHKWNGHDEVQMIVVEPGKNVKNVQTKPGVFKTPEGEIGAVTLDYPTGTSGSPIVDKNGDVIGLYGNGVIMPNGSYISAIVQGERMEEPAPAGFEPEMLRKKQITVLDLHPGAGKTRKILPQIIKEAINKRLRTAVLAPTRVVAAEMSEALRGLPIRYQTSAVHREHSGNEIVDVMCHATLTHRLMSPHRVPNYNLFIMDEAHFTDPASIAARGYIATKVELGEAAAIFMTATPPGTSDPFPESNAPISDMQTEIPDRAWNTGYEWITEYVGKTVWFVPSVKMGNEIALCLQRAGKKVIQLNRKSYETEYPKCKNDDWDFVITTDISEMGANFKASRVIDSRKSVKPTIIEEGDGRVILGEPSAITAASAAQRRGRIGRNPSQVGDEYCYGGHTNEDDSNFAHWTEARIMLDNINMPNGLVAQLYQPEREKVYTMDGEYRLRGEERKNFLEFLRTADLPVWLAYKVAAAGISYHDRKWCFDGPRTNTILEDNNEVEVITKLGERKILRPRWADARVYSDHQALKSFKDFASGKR

Point of comparison: COc1ccc(S(=O)(=O)n2nc(OC(=O)c3ccccc3Br)cc2N)cc1 [2-bromobenzoic acid [5-amino-1-(4-methoxyphenyl)sulfonyl-3-pyrazolyl] ester], IC50 0.297 µM. Against it:
- OC[C@H]1O[C@@H](n2cnc3c(NC4CCCC4)ncnc32)[C@H](O)[C@@H]1O — higher, > 50 µM
- COc1ccc(C2=Nn3c(nnc3-c3ccc(OC)cc3)SC2)cc1 — higher, > 50 µM
- Cc1ccc(S(=O)(=O)n2nc(OC(=O)c3cccs3)cc2N)cc1 — 8.1-fold higher, 2.41 µM
- Nc1cc(OC(=O)c2ccco2)nn1S(=O)(=O)c1ccc(F)cc1 — 5.6-fold higher, 1.65 µM
- N[C@@H](Cc1ccc(O)c(I)c1)C(=O)O — higher, > 50 µM
- CCCC(=O)Nc1ccc(NC(=O)C23CC4CC(CC(C4)C2)C3)cn1 — higher, > 50 µM
- COc1ccccc1-n1c(SCC(=O)N2CCOCC2)nc(O)c(Cc2ccccc2)c1=O — higher, > 50 µM
- CCOC(=O)C1=C[C@]2(CC)CCCN3CCc4c(n1c1ccccc41)[C@@H]32 — higher, > 50 µM
- O=C(O)c1cc(-c2ccc(F)cc2F)ccc1O — higher, > 50 µM
- CN1C(=O)N(CN2CCCCC2)C2C1N(C)C(=O)N2CN1CCCCC1 (configuration not stated) [1,6-dimethyl-3,4-bis(1-piperidinylmethyl)-3a,6a-dihydroimidazo[4,5-d]imidazole-2,5-dione] — higher, > 50 µM
- Cc1ccc(NC(=O)C2CCN(S(=O)(=O)c3cccc4nonc34)CC2)nc1 [1-(2,1,3-benzoxadiazol-4-ylsulfonyl)-N-(5-methyl-2-pyridinyl)-4-piperidinecarboxamide] — higher, > 50 µM
- O=C(c1cccs1)N1CCN(C(=O)c2ccco2)c2ccccc2C1 [1-(2-furoyl)-4-(thien-2-ylcarbonyl)-2,3,4,5-tetrahydro-1H-1,4-benzodiazepine] — higher, > 50 µM
- CCOC(=O)C1CCN(S(=O)(=O)c2ccc(C(=O)OC)cc2)CC1 [1-(4-Methoxycarbonyl-benzenesulfonyl)-piperidine-4-carboxylic acid ethyl ester] — higher, > 50 µM
- CCSc1nnc(NC(=O)NCC(F)(F)F)s1 [1-(5-ethylsulfanyl-1,3,4-thiadiazol-2-yl)-3-(2,2,2-trifluoroethyl)urea] — higher, > 50 µM
- Cc1cc(N2CCC(C(=O)NC3CCCCC3)CC2)nc(-c2ccccc2)n1 [1-(6-Methyl-2-phenyl-pyrimidin-4-yl)-piperidine-4-carboxylic acid cyclohexylamide] — higher, > 50 µM
- CCCCNC(=O)NS(=O)(=O)c1ccc(C)cc1 [1-Butyl-3-(p-methylphenylsulfonyl)urea] — higher, > 50 µM
- CC(C)c1nnc(NC(=O)c2c(O)n3c4c(cccc4c2=O)CCC3)s1 [1-Hydroxy-3-oxo-6,7-dihydro-3H,5H-pyrido[3,2,1-ij]quinoline-2-carboxylic acid (5-isopropyl-[1,3,4]thiadiazol-2-yl)-amide] — higher, > 50 µM
- COc1cccc(CNC(=O)C2CCN(S(=O)(=O)c3ccc4c(c3)CCC(=O)N4)CC2)c1 [1-[(2-keto-3,4-dihydro-1H-quinolin-6-yl)sulfonyl]-N-m-anisyl-isonipecotamide] — higher, > 50 µM
- CC(CC1(O)C(=O)N(Cc2ccccc2)c2ccccc21)N=O (configuration not stated) [1-benzyl-3-(2-hydroximinopropyl)-3-hydroxy-oxindole] — higher, > 50 µM
- CC(C)n1c(-c2cccnc2)nc2cnccc21 [1-isopropyl-2-(3-pyridyl)imidazo[4,5-c]pyridine] — higher, > 50 µM
- Cn1cc(C(=O)NCN2CCCCC2)c2ccccc21 [1-methyl-N-(1-piperidinylmethyl)-3-indolecarboxamide;hydrochloride] — higher, > 50 µM
- OC(CNCCCN1CCCCC1)COc1ccccc1 (configuration not stated) [1-phenoxy-3-(3-piperidin-1-ylpropylamino)propan-2-ol;hydrochloride] — higher, > 50 µM
- CC1=C(C#N)C(=O)OC(C)(C)C1 [2,2,4-trimethyl-6-oxidanylidene-3H-pyran-5-carbonitrile] — higher, > 50 µM
- Cc1cnc(NC(=O)C(C)N2C(=O)C3CC=CCC3C2=O)s1 (configuration not stated) [2-(1,3-diketo-3a,4,7,7a-tetrahydroisoindol-2-yl)-N-(5-methylthiazol-2-yl)propionamide] — higher, > 50 µM
- O=C(OCCN1C(=O)c2ccccc2C1=O)c1cc(S(=O)(=O)N2CCOCC2)ccc1F [2-(1,3-dioxoisoindol-2-yl)ethyl 2-fluoro-5-morpholin-4-ylsulfonylbenzoate] — higher, > 50 µM
- COc1ccc(OC)c(C2C(C(N)=O)C(C)=Nc3nc(-c4cccc(Cl)c4)nn32)c1 (configuration not stated) [2-(3-chlorophenyl)-7-(2,5-dimethoxyphenyl)-5-methyl-1,7-dihydro-[1,2,4]triazolo[1,5-a]pyrimidine-6-carboxamide] — higher, > 50 µM
- CCc1cccc2c(C#N)cn(CC(=O)NCc3ccco3)c12 [2-(3-cyano-7-ethyl-1-indolyl)-N-(2-furanylmethyl)acetamide] — higher, > 50 µM
- Cc1cccn2c(=O)c(/C=N/Cc3ccco3)c(Nc3ccc(Cl)cc3)nc12 [2-(4-chloroanilino)-3-(2-furanylmethyliminomethyl)-9-methyl-4-pyrido[1,2-a]pyrimidinone] — higher, > 50 µM
- CCC(=O)N1CCc2cc(Br)cc(S(=O)(=O)CC(=O)OC)c21 [2-(5-bromo-1-propionyl-indolin-7-yl)sulfonylacetic acid methyl ester] — higher, > 50 µM
- COC(=O)c1c(NC(=O)C2CC2)sc2c1CCCC2 [2-(cyclopropanecarbonylamino)-4,5,6,7-tetrahydrobenzothiophene-3-carboxylic acid methyl ester] — higher, > 50 µM
- COc1cccc(NC(=O)CSc2nc3nnc(C)c-3c(N)n2-c2cccc(OC)c2)c1 [2-[4-amino-5-(3-methoxyphenyl)-3-methylpyrazolo[3,4-d]pyrimidin-6-yl]sulfanyl-N-(3-methoxyphenyl)acetamide] — higher, > 50 µM
- C=CCn1c(SCC(=O)OC)nc2sc3c(c2c1=O)CCN(C)C3 [2-[(3-allyl-4-keto-7-methyl-6,8-dihydro-5H-pyrido[2,3]thieno[2,4-b]pyrimidin-2-yl)thio]acetic acid methyl ester] — higher, > 50 µM
- CCOC(=O)CNC(=O)C(Cc1ccccc1)NS(=O)(=O)c1cccs1 (configuration not stated) [2-[[1-oxo-3-phenyl-2-(thiophen-2-ylsulfonylamino)propyl]amino]acetic acid ethyl ester] — higher, > 50 µM
- COc1ccc(NC=C2C(=O)CCCC2=O)cc1 [2-[[(4-methoxyphenyl)amino]methylidene]cyclohexane-1,3-dione] — 110-fold higher, 34.1 µM
- CCc1nc(N)c(C#N)c(-c2cccn2C)c1C [2-amino-6-ethyl-5-methyl-4-(1-methylpyrrol-2-yl)pyridine-3-carbonitrile] — higher, > 50 µM
- CC(C[N+](C)(C)C)OC(N)=O (configuration not stated) [2-aminocarbonyloxypropyl(trimethyl)azanium;chloride] — higher, > 50 µM
- Nc1cc(OC(=O)c2ccccc2Br)nn1S(=O)(=O)c1ccccc1 [2-bromobenzoic acid (5-amino-1-besyl-pyrazol-3-yl) ester] — 4.2-fold higher, 1.26 µM
- COc1ccc(S(=O)(=O)n2nc(OC(=O)c3cccs3)cc2N)cc1 [2-thiophenecarboxylic acid [5-amino-1-(4-methoxyphenyl)sulfonyl-3-pyrazolyl] ester] — 2.7-fold lower, 0.11 µM
- CCOC(=O)c1[nH]c2ccccc2c1NC(=O)CC [3-(1-oxopropylamino)-1H-indole-2-carboxylic acid ethyl ester] — higher, > 50 µM
- Brc1cccc(-c2cnc3n2CCCCC3)c1 [3-(3-bromophenyl)-6,7,8,9-tetrahydro-5H-imidaz[1,2-a]azepine;hydrochloride] — higher, > 50 µM
- O=S(=O)(c1ccc(Cl)cc1)N1CN2CCN(C2)C1 [3-(4-Chloro-benzenesulfonyl)-1,3,5-triaza-bicyclo[3.2.1]octane] — higher, > 50 µM
- CC(=O)N1CCN(C(=O)c2cccc(S(=O)(=O)Nc3ccc(C)cc3)c2)CC1 [3-(4-acetylpiperazine-1-carbonyl)-N-(4-methylphenyl)benzenesulfonamide] — higher, > 50 µM
- COc1ccc2[nH]c(C(=O)O)c(CCNC(C)=O)c2c1 [3-[2-(acetylamino)ethyl]-5-methoxy-1H-indole-2-carboxylic acid] — higher, > 50 µM
- COc1cccc2cc(-c3csc(CCn4nc(C)cc4C)n3)c(=O)oc12 [3-[2-[2-(3,5-dimethyl-1-pyrazolyl)ethyl]-4-thiazolyl]-8-methoxy-1-benzopyran-2-one] — higher, > 50 µM
- O=C(c1cc2ccccc2oc1=O)N1CCN(c2ccc(N3CCOCC3)nn2)CC1 [3-[4-(6-morpholin-4-ylpyridazin-3-yl)piperazin-1-yl]carbonylchromen-2-one] — higher, > 50 µM
- CCn1cc(C(=O)Nc2cccc(C(=O)OC)c2)c(=O)c2ccc(C)nc21 [3-[(1-Ethyl-7-methyl-4-oxo-1,4-dihydro-[1,8]naphthyridine-3-carbonyl)-amino]-benzoic acid methyl ester] — higher, > 50 µM
- CC(C)NCc1c(O)c(Br)cc2oc3c(c12)CCCC3 [3-bromanyl-1-[(propan-2-ylamino)methyl]-6,7,8,9-tetrahydrodibenzofuran-2-ol] — higher, > 50 µM
- CCOC(=O)N1CCN(C2=CC(=O)OC23CCCCC3)CC1 [4-(2-Oxo-1-oxa-spiro[4.5]dec-3-en-4-yl)-piperazine-1-carboxylic acid ethyl ester] — higher, > 50 µM
- COc1ccc(N2CCN(C(=O)c3cn(C)c(=O)c4c3c3ccccc3n4C)CC2)cc1 [4-[4-(4-methoxyphenyl)piperazin-1-yl]carbonyl-2,9-dimethyl-pyrido[3,4-b]indol-1-one] — higher, > 50 µM
- NC(=O)c1ccc(-n2nnnc2SCc2ccc(F)cc2)cc1 [4-[5-[(4-fluorobenzyl)thio]tetrazol-1-yl]benzamide] — higher, > 50 µM
- CCN(CC)CCNC(=O)c1ccc(N)cc1 [4-amino-N-[2-(diethylamino)ethyl]benzamide;hydrochloride] — higher, > 50 µM
- CCN(CC(=O)NC(C)C)C(=O)CCNC(=O)c1ccc(Cl)cc1 [4-chloranyl-N-[3-[ethyl-[2-oxidanylidene-2-(propan-2-ylamino)ethyl]amino]-3-oxidanylidene-propyl]benzamide] — higher, > 50 µM
- CCOC(=O)C(CC(=O)O)N1CCCCC1 (configuration not stated) [4-ethoxy-4-keto-3-piperidino-butyric acid] — higher, > 50 µM
- COc1cc(C)nc(Oc2ccc(OCCOc3ccc(C)cc3)nn2)n1 [4-methoxy-6-methyl-2-[6-[2-(4-methylphenoxy)ethoxy]pyridazin-3-yl]oxy-pyrimidine] — higher, > 50 µM
- O=C1NC(=O)C(c2ccccc2)(c2ccccc2)N1 [5,5-DIPHENYLHYDANTOIN SODIUM SALT] — higher, > 50 µM
- CNC(=O)c1nnc(Cc2ccc(F)cc2)o1 [5-(4-fluorobenzyl)-N-methyl-1,3,4-oxadiazole-2-carboxamide] — higher, > 50 µM
